According to patent publication US9018176B2, “Inducers of hematopoiesis and fetal globin production for treatment of cytopenias and hemoglobin disorders” (priority 2010, dated 2015):
Several values for one entry are separate records, joined by “and”; a condition that tells them apart may be missing. Identical values can stand only once. Entries after “also recorded” stand apart in the source; their conditions may differ.

Key:
γ-globin gene promoter = test: Dual luciferase reporter assay (μLCRβprRlucAγprFluc cassette) in GM979 cells; assay type: cell-based; conditions: Resveratrol at 10 μM, MS-275 at 5 μM; for activity compared with sodium Butyrate: Ambroxol at 1 μM, Desloratadine at 1 μM, Benserazide at 0.03 μM (or a range of 30 nM-5 μM), NSC-95397 at 1 μM, versus sodium Butyrate at 2000 μM; for most active at inducing γ-globin mRNA expression: Benserazide at 0.03 μM
Text: Cell-based screen for γ-globin inducing compounds in GM979 cells (Skarpidi, et al. Blood 2000; 96:321-326). Mini-gene construct integrated into GM979 cell genome. The readout is Firefly/Renilla luciferase ratio, and is designed to identify only strong inducers of the γ-globin promoter, and specificity for the γ- vs. the […]γ-globin gene. This second assay confirmed 12/15 candidates.
This assay is […], and consists of a dual-luciferase reporter construct containing the LCR and the […] luciferase and the Aγ-globin promoter linked to firefly luciferase (μLCRβprRlucAγprFluc cassette), stably-transfected into GM979 cells. The orientation of the promoters and μLCR allowed detection only of strong, specific inducers of the γ-globin gene promoter. This assay is also been predictive of in vivo HbF-inducing activity.
The γ-globin-specificity of hits was determined in a secondary assay employing a stably-transfected dual-luciferase reporter construct containing the LCR and the β-globin promoter linked to renilla luciferase and the Aγ-globin promoter linked to firefly luciferase (μLCRβprRlucAγprFluc cassette) (FIG. 2B).

γ-globin mRNA [1] = test: γ-globin mRNA in cultured primary human erythroid progenitors (BFU-e), real-time PCR; assay type: cell-based; conditions: for γ-globin mRNA induction: cultured primary human erythroid progenitors, concentrations pharmacologically achievable in humans; for % induction of γ-globin mRNA gene expression: FIG. 4C, HFU-E (burst-forming units-erythroid) cells, Resveratrol 30 μM, desloratadine 50 μM, NSC 50 μM, Benserazine 5 μM; for effect in increasing % of γ-globin mRNA expression: FIG. 6, BFU-e cells, Desloratadine 3 μM, Benserazide 3 μM, NSC5397 0.6 μM
Method: Erythroid progenitors were cultured from cord blood CD34+ cells. […] Each compound was tested in three different cultures. […] On day 14, RNA was extracted from cultured erythroid cells, and relative quantification PCR was performed. Briefly, cDNA was generated from equal amounts of total RNA extracted using The PerfectPure RNA Purification Kit (5 Prime Inc Gaithersburg, Md.). Real-time PCR was performed using an ABI 7500 Real-Time PCR system (Applied Biosystems, Foster City, Calif.). Levels of globin mRNA were calculated by the ΔΔCt method. […] GAPDH levels were used for standardization. Western blotting Nuclear extract of K562 cells and 14-day-old BFU-e were analyzed by electrophoresis using 5-24% gradient SDS-polyacrylamide mini-gels (BIORAD Laboratories. Hercules Calif.). Proteins in the gels were transferred to Immobilon-P membranes. Blots were then incubated with BCL11A polyclonal (Novus Biologicals, Littleton Co) or mouse monoclonal (Santa Cruz Biotechnology, Santa Cruz Calif.) antibodies, after washing blots were incubated with anti-rabbit IgG-horseradish peroxidase secondary antibody (ECL, Little Chalfont Buckinghamshire UK). BCL11A bands were detected on the X-ray film using Western Lightning Reagents (Perking Elmer Inc, Waltham, Mass.).

γ-globin mRNA [2] = test: as above; assay type: cell-based
γ-globin mRNA [3] = test: γ-globin mRNA gene expression in K562 cells; assay type: cell-based; conditions: for % induction of γ-globin mRNA gene expression: FIGS. 4A and 4B, Resveratrol 30 μM, desloratadine 50 μM, NSC 50 μM, Benserazine 5 μM
CB BFU-E cells = test: CB BFU-E cell proliferation (cells/colony)
Method: Fetal globin-inducing activity in human erythroid progenitors was assessed. Human erythroid progenitors were cultured from peripheral blood samples, exposed to the test compounds at varying concentrations and for varying durations and analyzed for globin chain mRNA ratios. Erythroid progenitors were cultured from cord blood CD34+ cells. Briefly, CD34+ cells in the human cord blood were separated using a Ficoll-paque density gradient. CD34+ cells were cultured in H4230 medium containing 2 mM L-glutamine, 1% Methylcellulose in Iscove's Medium, 30% Fetal Bovine Serum, 1% Bovine Serum Albumin and 10^-4 M β-mercaptoethanol. Methylcellulose H4230 medium was supplemented with EPO (0.5 U/ml) and IL-3 (20 ng/ml) to support BFU-e growth. Cells were cultured in […] mini-dishes and incubated in a humidified atmosphere containing 5% CO2, at 37° C. Different concentrations of the test compounds were added at the time the cultures were established. Each compound was tested in three different cultures. BFU-e colonies grown in mini-dishes were counted on day 14 and harvested for mRNA analysis.

γ-globin = test: Fetal globin (γ-globin mRNA, HbF) induction in phlebotomized anemic baboons; assay type: in vivo, baboons (Papio hamadryas anubis); conditions: for fetal globin mRNA: Benserazide 1 or 3 mg/kg in baboon 1509, MS-275 and desloratidine
Method: (§1) Studies to evaluate pharmacokinetic properties and γ-globin induction were performed in juvenile baboons (Papio hamadryas anubis). Briefly, animals were chronically phlebotomized on a daily basis to achieve stable anemia, maintaining a total hemoglobin level of 7.0 to 7.5 g/dl. Candidate compounds were administered intravenously or orally once daily in single doses for pharmacokinetic studies, or once daily in single doses, 4-5 days per week for 4-5 weeks, for pharmacodynamic studies. […] Levels of γ-globin mRNA expression and globin chain synthesis were assessed in baboons before and during treatment with test compounds. A washout period between administrations of different compounds in the same baboon was provided.
(§2) Chronically catheterized baboons were phlebotomized daily to create chronic anemia with total hemoglobin levels (Hb) between 7.0 to 7.5 g/dl which simulates the expanded erythropoiesis and anemia in sickle cell disease and beta thalassemia. Blood counts were drawn and total Hb (hemoglobin) and reticulocytes were analyzed on a hemavet analyzer. Fetal globin mRNA was analyzed by RT-PCR and proportions for f-cells were analyzed by flow cytometry. […] Desloratidine (0.6 mg/kg) was administered for 4 days following a washout period. Blood counts were obtained at least 3 days/week.
Baboons HL-25 and HD50 were phlebotomized daily to create anemia with erythroid expansion. When stably anemic, Desloratidine (0.6 mg/kg) was administered orally, fetal hemoglobin (HbF) protein levels were assayed.

[4] = tested on: red blood cell production; test: Total hemoglobin and hematocrit in phlebotomized anemic baboons; assay type: in vivo, baboons (Papio hamadryas anubis); conditions: for total hemoglobin levels: MS-275 as
Method: as §1, §2
Baboon 1509 (weight 10.9 kg) was phlebotomized to induce anemia and marrow expansion, similar to the hemoglobin disorders.

cell viability = conditions: cited from earlier work; for DNA fragmentation: fragmentation assays
[5] = tested on: system A transport of amino acids; conditions: cited from earlier work
[6] = Ambroxol 0.1-1 uM, Cord Blood progenitors
[7] = Ambroxol 0.1-1 uM, Normal progenitors
[8] = Benserazide 0.1-0.3 uM, Cord Blood progenitors
[9] = Benserazide 1 or 3 mg/kg in baboon 1509
[10] = Benserazide 0.1-0.3 uM, Hemoglobin disorder progenitors
[11] = Benserazide 0.1-0.3 uM, Normal progenitors
[12] = MS275 0.5 uM, Cord Blood progenitors
[13] = MS275 0.5 uM, Normal progenitors

Nc1c(Br)cc(Br)cc1CN[C@H]1CC[C@H](O)CC1 [Ambroxol, ambroxol]
activity compared with sodium Butyrate (γ-globin gene promoter): significantly more active | fetal globin mRNA, single cultures (γ-globin mRNA [1]; [6]): 302 % of control and 233 % of control and 193 % of control | γ-globin mRNA induction (γ-globin mRNA [1]): 3 fold | fetal globin mRNA, Means (γ-globin mRNA [2]; [6]): 243 % of control | responses (cultures with induced fetal globin mRNA) (γ-globin mRNA [2]; [6]): 3/4 | fetal globin mRNA, Means (γ-globin mRNA [2]; [7]): 224 % of control | responses (cultures with induced fetal globin mRNA) (γ-globin mRNA [2]; [7]): 1/1

NC(CO)C(=O)NNCc1ccc(O)c(O)c1O (stereo not shown) [Benserazide, 2-amino-3-hydroxy-N′-(2,3,4-trihydroxybenzyl)propanehydrazide]
activity compared with sodium Butyrate (γ-globin gene promoter): significantly more active | most active at inducing γ-globin mRNA expression (γ-globin gene promoter): most active | responses (cultures with induced fetal globin mRNA) (γ-globin mRNA [1]; [8]): 4/5 | % induction of γ-globin mRNA gene expression (γ-globin mRNA [1]): most significant % increase | effect in increasing % of γ-globin mRNA expression (γ-globin mRNA [1]): greatest effect | γ-globin mRNA induction (γ-globin mRNA [1]): up to 5 fold | concentrations that induce fetal globin (HbF) mRNA (γ-globin mRNA [1]; primary erythroid progenitors in vitro): 0.3 to 5.0 µM | % induction of γ-globin mRNA gene expression (γ-globin mRNA [3]; K562 cells): most significant % increase | number of blood cells per colony (CB BFU-E cells; FIG. 8): increase the number of blood cells per colony | Increase in γ-globin mRNA above baseline (γ-globin; Baboon 1509, Benserazide oral 2 mg/kg): 193% | fetal globin mRNA (γ-globin): increased | hemoglobin level after treatment ([4]; Baboon 1509, Benserazide 1 mg/kg then 2 mg/kg, by 2 weeks after administration, daily phlebotomy continued, before 7.6 g/dl): 8.9 g/dL | hematocrit after treatment ([4]; Baboon 1509, Benserazide 1 mg/kg then 2 mg/kg, by 2 weeks after administration, daily phlebotomy continued, before 25.6%): 28% | blood cell proliferation [4, 9]: increased blood cell proliferation | total hemoglobin levels [4, 9]: increased | fetal globin mRNA, Mean (γ-globin mRNA [2]; [8]): 300 % of control | fetal globin mRNA, Mean (γ-globin mRNA [2]; [10]): 212 % of control | responses (cultures with induced fetal globin mRNA) (γ-globin mRNA [2]; [10]): 4/4 | fetal globin mRNA, single subjects (γ-globin mRNA [2]; Benserazide 0.1-0.3 uM, Hemoglobin disorder progenitors (subjects)): 178 % of control and 143 % of control and 282 % of control and 128 % of control and 277.3 % of control | fetal globin mRNA, Mean (γ-globin mRNA [2]; [11]): 151 % of control | responses (cultures with induced fetal globin mRNA) (γ-globin mRNA [2]; [11]): 3/4 | fetal globin mRNA, single subjects (γ-globin mRNA [2]; Benserazide 0.1-0.3 uM, Normal progenitors (MB, JS, ABM)): 115 % of control and 223 % of control and 114 % of control

CCCC(=O)O [Butyrate, butyrate]
concentration required (CB BFU-E cells; FIG. 8, comparator for the 3 drug candidates): 200 µM

Nc1ccccc1NC(=O)c1ccc(CNC(=O)OCc2cccnc2)cc1 [MS-275, N-(2-aminophenyl)-4-[N-(pyridin-3-yl-methoxycarbonyl)aminomethyl]benzamide]
activity compared with sodium Butyrate (γ-globin gene promoter): significantly more active | most active at inducing γ-globin mRNA expression (γ-globin gene promoter): most active | γ-globin induction compared with arginine butyrate (γ-globin mRNA [1]; FIG. 13, MS-275 0.5 μM vs arginine butyrate 100 μM, progenitors from human sources with low or high basal HbF): higher activity; also recorded: greater | γ-globin mRNA induction (γ-globin mRNA [1]): up to 3.7 fold | γ-globin induction, dependence on dose (γ-globin mRNA [3]; FIG. 10B, K562 cells): dose-dependent | Increase in γ-globin mRNA above baseline (γ-globin; Baboon HD50, MS-275 oral 0.18 mg/kg, 0.18 mg/kg): 270% | fetal globin mRNA (γ-globin): induced | γ-globin mRNA expression in blood compared with positive control ST20 (150 mg/kg) (γ-globin; FIG. 12A, MS-275 3 mg/m^2 for 4 days and 2 weeks, desloratadine 0.6 mg/kg for two days vs ST20 after 2 or 4 days): to the same level | total hemoglobin levels [4, 9]: increased | blood total hemoglobin (Hb) levels compared with positive control ST20 (150 mg/kg) ([4]; FIG. 12B, MS-275 3 mg/m^2 for 4 days and 2 weeks vs ST20 2 and 4 days, desloratadine 0.6 mg/kg for two days): to a greater extent | fetal globin mRNA, Mean (γ-globin mRNA [2]; [12]): 345 % of control | responses (cultures with induced fetal globin mRNA) (γ-globin mRNA [2]; [12]): 2/2 | fetal globin mRNA, Mean (γ-globin mRNA [2]; [13]): 394 % of control | responses (cultures with induced fetal globin mRNA) (γ-globin mRNA [2]; [13]): 5/6 | fetal globin mRNA, single subjects (γ-globin mRNA [2]; MS275 0.5 uM, Normal progenitors (MB, MB, JS, ABM, ABM)): 680 % of control and 534 % of control and 168 % of control and 463 % of control and 126 % of control

O=C1C(SCCO)=C(SCCO)C(=O)c2ccccc21 [NSC-95397]
activity compared with sodium Butyrate (γ-globin gene promoter): significantly more active | % induction of γ-globin mRNA gene expression (γ-globin mRNA [1]): most significant % increase | effect in increasing % of γ-globin mRNA expression (γ-globin mRNA [1]): greatest effect | concentration giving the most γ-globin mRNA expression (γ-globin mRNA [3]; FIG. 5, K562 cells, tested Desloratadine 10 μM-100 μM, Resveratrol 5 μM-30 μM, NSC 1 μM-50 μM): 50 µM | % induction of γ-globin mRNA gene expression (γ-globin mRNA [3]; K562 cells): most significant % increase

CCCC(=O)OCC [butyric acid ethyl ester]
DNA fragmentation (cell viability): reduce DNA fragmentation

CC(C)C(N)=O [isobutyramide]
cell viability (cell viability; DNA fragmentation assays): decrease cell viability

O=C(O)COc1ccccc1 [phenoxyacetic acid]
DNA fragmentation (cell viability): reduce DNA fragmentation | system A transport of amino acids [5]: do not significantly alter

CC(=Cc1ccccc1)C(=O)O [α-methyl cinnamic acid]
system A transport of amino acids [5]: do not significantly alter
